Experimental findings from ChEMBL document CHEMBL1268919, “Berberine derivatives, with substituted amino groups linked at the 9-position, as inhibitors of acetylcholinesterase/butyrylcholinesterase” (Bioorg Med Chem Lett, 2010) are described below.

The structures appear in SMILES notation. Active and inactive are the calls of the source. No cut-off for these calls is given here.

Chain of Acetylcholinesterase (Electrophorus electricus) (O42275 24-633 limits assumed): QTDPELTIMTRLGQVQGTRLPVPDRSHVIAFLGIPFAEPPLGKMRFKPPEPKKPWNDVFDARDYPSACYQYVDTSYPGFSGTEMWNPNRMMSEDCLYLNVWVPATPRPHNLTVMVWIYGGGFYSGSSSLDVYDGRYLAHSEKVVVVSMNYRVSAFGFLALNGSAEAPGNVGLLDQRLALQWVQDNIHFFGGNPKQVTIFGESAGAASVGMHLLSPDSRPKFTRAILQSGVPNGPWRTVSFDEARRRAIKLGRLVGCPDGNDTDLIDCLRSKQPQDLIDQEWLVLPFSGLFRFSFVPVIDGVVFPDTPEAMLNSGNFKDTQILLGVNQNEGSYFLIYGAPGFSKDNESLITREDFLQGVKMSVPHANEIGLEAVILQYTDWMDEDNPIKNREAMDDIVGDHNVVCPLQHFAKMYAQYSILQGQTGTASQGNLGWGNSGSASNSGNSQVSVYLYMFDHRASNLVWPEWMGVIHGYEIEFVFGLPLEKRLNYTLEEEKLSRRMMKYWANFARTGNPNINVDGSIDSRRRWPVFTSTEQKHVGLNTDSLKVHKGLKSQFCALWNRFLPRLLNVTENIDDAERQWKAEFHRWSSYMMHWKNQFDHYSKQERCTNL

In one experiment the target is Acetylcholinesterase (Electrophorus electricus, UniProt O42275).
Chain of Acetylcholinesterase (O42275 whole entry): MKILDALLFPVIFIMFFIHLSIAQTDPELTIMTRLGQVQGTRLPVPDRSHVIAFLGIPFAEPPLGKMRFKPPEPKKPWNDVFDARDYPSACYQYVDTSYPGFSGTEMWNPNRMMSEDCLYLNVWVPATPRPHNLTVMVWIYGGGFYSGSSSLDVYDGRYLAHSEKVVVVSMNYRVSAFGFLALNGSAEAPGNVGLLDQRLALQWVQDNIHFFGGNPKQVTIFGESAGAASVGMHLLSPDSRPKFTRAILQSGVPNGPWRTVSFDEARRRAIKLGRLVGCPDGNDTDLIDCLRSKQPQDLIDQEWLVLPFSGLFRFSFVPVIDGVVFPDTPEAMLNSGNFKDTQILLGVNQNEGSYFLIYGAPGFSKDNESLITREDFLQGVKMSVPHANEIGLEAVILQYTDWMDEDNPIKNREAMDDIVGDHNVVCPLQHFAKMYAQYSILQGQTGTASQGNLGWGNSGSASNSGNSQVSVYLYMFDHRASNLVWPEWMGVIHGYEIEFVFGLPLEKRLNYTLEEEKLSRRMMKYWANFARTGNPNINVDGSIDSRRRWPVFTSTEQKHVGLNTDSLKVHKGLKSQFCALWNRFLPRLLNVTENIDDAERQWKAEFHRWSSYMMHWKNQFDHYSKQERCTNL
Description: Inhibition of electric eel AChE after 15 mins by Ellman's method using acetylcholine as substrate
`CCN(CC)CCCOc1c(OC)ccc2cc3[n+](cc12)CCc1cc2c(cc1-3)OCO2` returned an IC50 of 0.105 µM. That is a sub-micromolar value.

For the compound `COc1ccc2cc3[n+](cc2c1OCCCN1CCCC1)CCc1cc2c(cc1-3)OCO2`, 0.093 µM corresponded to half-maximal inhibition (IC50). On to `COc1ccc2cc3[n+](cc2c1OCCCN(C)C)CCc1cc2c(cc1-3)OCO2`, for which the midpoint of inhibition, the IC50, lay at 0.201 µM. On to `CCCN(CCC)CCCOc1c(OC)ccc2cc3[n+](cc12)CCc1cc2c(cc1-3)OCO2`, for which inhibition was half-maximal at 0.31 µM (IC50). In the case of `COc1ccc2cc3[n+](cc2c1OCCCNC1CCCCC1)CCc1cc2c(cc1-3)OCO2`, the half-maximal inhibitory concentration (IC50) was found to be 0.02 µM. Compound `COc1ccc2cc3[n+](cc2c1OCCN1CCOCC1)CCc1cc2c(cc1-3)OCO2` returned an IC50 of 1.8 µM. Take `COc1ccc2cc3[n+](cc2c1OCCCO)CCc1cc2c(cc1-3)OCO2`: half-maximal inhibition (IC50) was put at 2.37 µM. The IC50 values of the last two compounds are within 1.5-fold of each other. `COc1ccc2cc3[n+](cc2c1OCCN(C)C)CCc1cc2c(cc1-3)OCO2` displayed an IC50 of 1.74 µM. `COc1ccc2cc3[n+](cc2c1OCCCN1CCOCC1)CCc1cc2c(cc1-3)OCO2` came in with an IC50 of 0.456 µM. `COc1ccc2cc3[n+](cc2c1OCCCN1CCCCC1)CCc1cc2c(cc1-3)OCO2` gave a concentration for half-maximal inhibition (IC50) of 0.052 µM.

The next experiment addresses Acetylcholinesterase (Electrophorus electricus) (UniProt O42275). The experiment is described as follows: Mixed-type inhibition of electric eel AChE after 15 mins by Lineweaver-Burke plot analysis.
`COc1ccc2cc3[n+](cc2c1OCCCNC1CCCCC1)CCc1cc2c(cc1-3)OCO2`: the inhibition result was “Active”.

What is called IC50 is the concentration at which inhibition is half-maximal. A low value points to greater potency.
